{"source": "patent US11833160B2", "about": "“Ursodeoxycholic acid derivatives as HDAC inhibitors for the treatment of polycystic diseases” (UNIVERSIDAD DEL PAIS VASCO/EUSKAL HERRIKO UNIBERTSITATEA, priority 2017, dated 2023)", "key": {"OATP1B1": {"biological_target": "T1, OATP1B1 (Homo sapiens, UniProt Q9Y6L6)", "T1 construct": "expressed in transfected cells", "T1 sequence (Q9Y6L6 1-691)": "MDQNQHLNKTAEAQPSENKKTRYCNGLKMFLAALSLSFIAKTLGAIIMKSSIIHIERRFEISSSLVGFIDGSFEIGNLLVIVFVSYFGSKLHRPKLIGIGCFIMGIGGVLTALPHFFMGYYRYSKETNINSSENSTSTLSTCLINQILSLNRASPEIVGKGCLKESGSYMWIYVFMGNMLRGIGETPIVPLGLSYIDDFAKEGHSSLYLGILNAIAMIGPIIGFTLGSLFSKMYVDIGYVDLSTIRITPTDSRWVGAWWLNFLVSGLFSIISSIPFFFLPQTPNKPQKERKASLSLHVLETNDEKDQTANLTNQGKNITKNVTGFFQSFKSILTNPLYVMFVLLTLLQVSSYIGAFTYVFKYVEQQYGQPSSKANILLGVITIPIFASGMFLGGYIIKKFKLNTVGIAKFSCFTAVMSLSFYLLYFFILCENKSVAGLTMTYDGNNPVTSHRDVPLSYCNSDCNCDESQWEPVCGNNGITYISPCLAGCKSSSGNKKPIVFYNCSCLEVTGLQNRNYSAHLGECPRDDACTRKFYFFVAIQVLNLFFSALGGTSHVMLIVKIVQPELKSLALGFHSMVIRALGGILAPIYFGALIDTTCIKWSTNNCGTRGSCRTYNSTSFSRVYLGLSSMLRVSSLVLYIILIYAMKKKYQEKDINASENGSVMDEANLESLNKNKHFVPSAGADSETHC", "assay": "Uptake study, transporter OATP1B1 (data not shown)", "format": "in vitro ADME"}, "human HDAC4": {"biological_target": "T2, human HDAC4 (Homo sapiens, UniProt P56524)", "T2 construct": "amino acids 627-1085 with GST N-terminal tag, MW=75.2 kDa; GST (N); purchased BioMol, Hamburg, Germany; host or cells: baculovirus expression system", "T2 sequence (P56524 627-1084 limits assumed)": "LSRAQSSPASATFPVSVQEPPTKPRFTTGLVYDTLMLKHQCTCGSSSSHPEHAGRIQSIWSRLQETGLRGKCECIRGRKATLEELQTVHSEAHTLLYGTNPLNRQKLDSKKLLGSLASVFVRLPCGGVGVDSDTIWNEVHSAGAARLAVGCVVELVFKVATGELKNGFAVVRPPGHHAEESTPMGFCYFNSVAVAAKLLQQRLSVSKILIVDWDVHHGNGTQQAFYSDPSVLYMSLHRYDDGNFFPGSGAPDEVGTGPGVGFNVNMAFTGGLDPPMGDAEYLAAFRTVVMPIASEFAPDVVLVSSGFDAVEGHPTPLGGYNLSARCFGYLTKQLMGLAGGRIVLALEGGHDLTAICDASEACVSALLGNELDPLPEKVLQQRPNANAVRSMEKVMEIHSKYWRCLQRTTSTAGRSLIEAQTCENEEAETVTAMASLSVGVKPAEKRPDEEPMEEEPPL", "assay": "HDAC4 enzymatic activity assay (fluorogenic peptide)", "format": "biochemical", "settings": "10-dose, 3-fold serial dilution, triplicate", "method": "Peptide substrates: all HDAC assays were performed using acetylated peptide substrates labeled with 7-amino-4-methylcoumarin (AMC): • Substrate for isoforms HDAC1, 2, 3, 6, 10, 11, and HeLa nuclear extract assays: acetylated fluorogenic peptide from p53 residues 379-382 (RHKKAc). • Substrate for isoforms HDAC4, 5, 7, 9: fluorogenic Boc-L-Lys (s-trifluoroacetyl)-AMC. • Substrate for HDAC8 assays: acetylated fluorogenic peptide from p53 residues 379-382 (RHKAcKAc).\n50 μl of peptide substrate (see “peptide substrates” section above) and an optimal concentration of the corresponding enzyme (see “enzymes” section above) in the assay buffer at a final DMSO concentration of 1% were incubated in the presence of gradient concentrations of inhibitors (10-dose IC50 mode with 3-fold serial dilution) at 30° C. for 2 hours. The reactions were carried out in a 96-well microplate for fluorometry in a 50 μl reaction volume. After the deacetylation reaction, Fluor-de-Lys-Developer (BioMol Cat. #KI-105) was added to each well to digest the deacetylated substrate, thereby producing the fluorescent signal. The reaction was carried out for 45 minutes at 30° C. with 5% CO2; the fluorescent signal was then measured using an excitation wavelength of 360 nm and an emission wavelength of 460 nm in a microplate-reading fluorometer (GeminiXS, Molecular Devices, Sunnyvale, CA). […]"}, "OCT1": {"biological_target": "T3, OCT1 (Homo sapiens, UniProt O15245)", "T3 construct": "expressed in transfected cells; host or cells: HepG2 cells", "T3 sequence (O15245 1-554)": "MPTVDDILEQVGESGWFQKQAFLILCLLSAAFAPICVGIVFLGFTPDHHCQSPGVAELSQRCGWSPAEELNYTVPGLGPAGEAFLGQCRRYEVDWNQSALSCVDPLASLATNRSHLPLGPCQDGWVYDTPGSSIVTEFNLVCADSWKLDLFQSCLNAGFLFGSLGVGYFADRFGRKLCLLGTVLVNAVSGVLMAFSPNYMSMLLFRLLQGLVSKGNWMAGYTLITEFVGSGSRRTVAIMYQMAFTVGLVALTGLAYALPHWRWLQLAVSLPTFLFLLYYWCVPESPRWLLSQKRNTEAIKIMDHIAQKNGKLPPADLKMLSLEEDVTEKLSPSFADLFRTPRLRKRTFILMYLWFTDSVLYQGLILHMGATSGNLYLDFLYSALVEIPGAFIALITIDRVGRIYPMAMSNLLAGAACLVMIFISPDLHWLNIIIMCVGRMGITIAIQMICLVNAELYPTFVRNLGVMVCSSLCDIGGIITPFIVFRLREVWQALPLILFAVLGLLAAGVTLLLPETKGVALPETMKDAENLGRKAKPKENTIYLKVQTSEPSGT", "assay": "Uptake study in HepG2 cells overexpressing OCT1", "format": "in vitro ADME", "from_the_text": "The bile acid and organic cation transporters expressed in hepatocytes and cholangiocytes were overexpressed in HepG2 cells (OCT1) and CHO cells (OCT3). The efficacy of the process was confirmed by means of measuring the abundance of mRNA (qPCR), protein (WB), and the correct insertion in the plasma membrane (immunofluorescence). The uptake studies included comparing the uptake efficiency of the compound with respect to dihydroethidium (DHE) in the case of OCT3, and sorafenib in the case of OCT1 (positive controls), as well as the sensitivity of the process to substrate inhibition induced by the joint administration of the compound and quinine. The cell content of all the compounds was determined by means of triple quadrupole HPLC-MS/MS after extraction thereof from the cell system used in each case."}, "[1]": {"tested_on": "polycystic human cholangiocytes", "assay": "CFSE proliferation protocol by flow cytometry", "format": "cell-based", "method": "The proliferation of polycystic human cholangiocytes at 48 hours in the absence or presence of different doses of compound Ia (10, 50, 100, μM) in a quiescence culture medium was analyzed. To that end, the CFSE proliferation protocol (Invitrogen) was used using flow cytometry."}}, "data": [{"smiles": "C[C@H](CCC(=O)NCc1ccc(C(=O)NO)cc1)[C@H]1CC[C@H]2[C@@H]3[C@@H](O)C[C@@H]4C[C@H](O)CC[C@]4(C)[C@H]3CC[C@]12C", "note": "[Compound Ia]", "values": [{"measurement": "transport through OATP1B1", "setting": "OATP1B1", "result": "not through ASBT or OATP1B1"}, {"measurement": "IC50", "setting": "human HDAC4", "result": 16.5, "unit": "µM"}, {"measurement": "effect of quinine (OCT1 inhibitor) on the OCT1 transport", "setting": "OCT1; joint administration with quinine", "result": "inhibited by the presence of quinine"}, {"measurement": "transport through OCT1", "setting": "OCT1; liver cells (HepG2 overexpressing OCT1), HPLC-MS/MS cell content", "result": "specifically transported through OCT1"}, {"measurement": "proliferation of polycystic human cholangiocytes", "setting": "[1]; 48 hours, 10, 50, 100 μM, quiescence culture medium", "result": "inhibits the hyper-proliferation of polycystic human cholangiocytes in vitro in a dose-dependent manner"}, {"measurement": "inhibition of proliferation compared with UDCA", "setting": "[1]; 48 hours, UDCA at 100 μM", "result": "with a higher intensity than UDCA"}]}]}
